Where no end group is shown, it is not given here.
How the values were obtained:
[1] = test system: P. aeruginosa 14 strain (PA14), ancestor strain; type: cell-based, Pseudomonas aeruginosa; conditions: ancestral strain PA14; MH broth, 5 × 10^5 CFU/ml, 96-well serial dilution, 24 h, inhibition of growth by at least 90% (OD595); 3 replicate lines per peptide
Experimental: MIC values were determined following a standard serial dilution protocol, as described elsewhere. Briefly, PA14 cells were grown overnight in MH broth, at 37°C and 200 rpm. Subsequently, cells were diluted 1:100 in MH broth and grown until reaching an optical density at 595 nm (OD595) of 0.1. Then, 100 μl of 5 × 10^5 CFU/ml were inoculated into each well in 96-well plates that contained a serial dilution of AMPs or RPMs. Each plate contained 3 replicate lines per peptide. The MICs were defined as the lowest concentration at which there was inhibition of bacterial growth by at least 90%, after 24 h, by measuring the OD595.
The MIC was determined on 3 occasions: (1) prior to the experiment, to determine the concentration of our focal peptides to be used at the start of the experimental evolution (i.e., MIC of the ancestor strain); (2) at the end of the experimental evolution, detect an increase, or decrease, in the resistance of the experimentally evolved strains to our peptides of interest; (3) to evaluate whether the experimental evolution of a certain treatment was accompanied by an increase, or decrease, in resistance or sensitivity to another antimicrobial (i.e., cross-resistance or collateral-sensitivity).

[2] = test system: PA14 strains evolved in the presence of an AMP/RPM; assay: Fitness cost of evolved strains (growth curves in the absence of AMPs); type: cell-based, Pseudomonas aeruginosa; conditions: growth in MH broth without AMPs, OD595 every 15 min for 24 h, normalised to ancestor; n = 6
Experimental: Bacterial cells were grown overnight in MH broth and then diluted to an OD595 of 0.1. For each strain, 200 μl of culture were transferred into 96-well plates, with 3 technical replicates. Optical density (OD595) was measured every 15 min for 24 h using an Epoch 2 microplate reader (BioTek). Lag time and Vmax were assessed using the plate reader software (Gen5). The values measured in the experimentally evolved strains were divided by the values of their respective ancestors and expressed as lag time fold-change and Vmax fold-change (see “Statistical analysis” section).
Similarly, we normalised both fitness readouts duration of the lag phase (lag time) and maximum slope of the bacterial growth curve (Vmax) to the readouts of the ancestor of the given evolved strain by dividing the values of the evolved strains to that of their respective ancestors. The resulting variable is a fold-change in Vmax and lag time during experimental evolution: Vmax fold-change and lag time fold-change.

Substance | MIC [1] | Lag time fold-change of evolved strains compared to control strains [2]
KIAKRIWKILRRR [PA-13] | 25 µg/mL | 
p-KKKFK [SLM3, specific palmitic acid-modified 5-mer peptide, composed of L-Lysine and/or L-Phenylalanine, part of a 32-peptide library] |  | significantly increased lag times

From article PMC11218975, “The evolution of antimicrobial peptide resistance in Pseudomonas aeruginosa is severely constrained by random peptide mixtures” (PLOS Biology, 2024)
